Source: US9637483B2, “Heterocyclic compound” (TAKEDA PHARMACEUTICAL COMPANY LIMITED, priority 2013, dated 2017)

Key:
Type in all cases: biochemical
[1] = molecular target: T1, JAK1 (Homo sapiens, UniProt P23458); experiment: JAK1 enzyme inhibition test (LANCE method); details: 1 μM test compound; for inhibition at 1 µM: read-out: JAK1 enzyme inhibitory activity (%, 1 μM)
T1 construct: purchased Invitrogen
How it was run: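 Inhibition expressed against no-enzyme wells (100% inhibition), from time-resolved fluorescence at 665 nm after Eu-anti-phosphotyrosine antibody/EDTA detection. Kinase reaction ran 1 h at room temperature, pH 7.5 HEPES buffer, ULight-JAK1 substrate and ATP diluted to 300 nM and 150 μM before addition.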

[2] = molecular target: T2, JAK2 (Homo sapiens, UniProt O60674); experiment: JAK2 enzyme inhibition test (LANCE method); details: 1 μM test compound; for inhibition at 1 µM: read-out: JAK2 enzyme inhibitory activity (%, 1 μM)
T2 construct: purchased Invitrogen
T2 sequence (O60674 whole entry): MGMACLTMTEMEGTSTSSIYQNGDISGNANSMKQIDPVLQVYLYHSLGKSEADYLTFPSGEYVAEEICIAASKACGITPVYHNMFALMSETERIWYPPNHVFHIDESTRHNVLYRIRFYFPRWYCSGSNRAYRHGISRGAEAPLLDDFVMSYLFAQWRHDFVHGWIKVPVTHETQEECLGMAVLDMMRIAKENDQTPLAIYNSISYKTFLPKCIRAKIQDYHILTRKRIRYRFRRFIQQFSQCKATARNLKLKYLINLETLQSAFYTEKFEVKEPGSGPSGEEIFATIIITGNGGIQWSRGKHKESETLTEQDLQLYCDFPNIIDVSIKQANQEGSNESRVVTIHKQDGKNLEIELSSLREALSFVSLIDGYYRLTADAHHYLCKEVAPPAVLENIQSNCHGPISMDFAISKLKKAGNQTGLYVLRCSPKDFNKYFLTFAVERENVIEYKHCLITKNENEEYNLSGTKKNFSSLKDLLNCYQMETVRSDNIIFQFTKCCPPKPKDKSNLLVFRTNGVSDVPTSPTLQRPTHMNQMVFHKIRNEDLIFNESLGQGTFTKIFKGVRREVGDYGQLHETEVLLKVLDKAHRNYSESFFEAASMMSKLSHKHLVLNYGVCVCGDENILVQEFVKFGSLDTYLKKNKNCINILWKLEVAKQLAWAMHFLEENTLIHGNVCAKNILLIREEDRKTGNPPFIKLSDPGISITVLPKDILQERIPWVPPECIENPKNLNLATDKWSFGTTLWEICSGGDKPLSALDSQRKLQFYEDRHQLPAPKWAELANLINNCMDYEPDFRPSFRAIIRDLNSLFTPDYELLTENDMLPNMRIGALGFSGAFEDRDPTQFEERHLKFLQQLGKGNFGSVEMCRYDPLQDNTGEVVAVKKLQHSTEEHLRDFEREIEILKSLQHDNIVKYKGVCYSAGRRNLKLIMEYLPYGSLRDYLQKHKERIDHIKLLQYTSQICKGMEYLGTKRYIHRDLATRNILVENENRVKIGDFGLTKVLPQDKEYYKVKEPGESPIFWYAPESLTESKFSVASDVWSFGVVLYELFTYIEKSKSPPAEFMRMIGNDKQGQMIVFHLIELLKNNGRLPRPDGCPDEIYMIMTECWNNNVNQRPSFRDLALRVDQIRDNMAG
How it was run: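 TR-FRET (LANCE) read-out, ex 340/em 665 nm with 100 μs delay, after 1 hr room-temperature detection with europium anti-phosphotyrosine antibody and 20 mM EDTA. The preceding 1 hr kinase reaction combined JAK2, ULight-JAK1 substrate and ATP, added as 6 ng/mL, 300 nM and 45 μM solutions; enzyme-free wells defined 100% inhibition.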

[3] = molecular target: T3, JAK3 (Homo sapiens, UniProt P52333); experiment: JAK3 enzyme inhibition test (LANCE method); details: 1 μM test compound; for inhibition at 1 µM: read-out: JAK3 enzyme inhibitory activity (%, 1 μM)
T3 construct: purchased Invitrogen
T3 sequence (P52333 1-1124): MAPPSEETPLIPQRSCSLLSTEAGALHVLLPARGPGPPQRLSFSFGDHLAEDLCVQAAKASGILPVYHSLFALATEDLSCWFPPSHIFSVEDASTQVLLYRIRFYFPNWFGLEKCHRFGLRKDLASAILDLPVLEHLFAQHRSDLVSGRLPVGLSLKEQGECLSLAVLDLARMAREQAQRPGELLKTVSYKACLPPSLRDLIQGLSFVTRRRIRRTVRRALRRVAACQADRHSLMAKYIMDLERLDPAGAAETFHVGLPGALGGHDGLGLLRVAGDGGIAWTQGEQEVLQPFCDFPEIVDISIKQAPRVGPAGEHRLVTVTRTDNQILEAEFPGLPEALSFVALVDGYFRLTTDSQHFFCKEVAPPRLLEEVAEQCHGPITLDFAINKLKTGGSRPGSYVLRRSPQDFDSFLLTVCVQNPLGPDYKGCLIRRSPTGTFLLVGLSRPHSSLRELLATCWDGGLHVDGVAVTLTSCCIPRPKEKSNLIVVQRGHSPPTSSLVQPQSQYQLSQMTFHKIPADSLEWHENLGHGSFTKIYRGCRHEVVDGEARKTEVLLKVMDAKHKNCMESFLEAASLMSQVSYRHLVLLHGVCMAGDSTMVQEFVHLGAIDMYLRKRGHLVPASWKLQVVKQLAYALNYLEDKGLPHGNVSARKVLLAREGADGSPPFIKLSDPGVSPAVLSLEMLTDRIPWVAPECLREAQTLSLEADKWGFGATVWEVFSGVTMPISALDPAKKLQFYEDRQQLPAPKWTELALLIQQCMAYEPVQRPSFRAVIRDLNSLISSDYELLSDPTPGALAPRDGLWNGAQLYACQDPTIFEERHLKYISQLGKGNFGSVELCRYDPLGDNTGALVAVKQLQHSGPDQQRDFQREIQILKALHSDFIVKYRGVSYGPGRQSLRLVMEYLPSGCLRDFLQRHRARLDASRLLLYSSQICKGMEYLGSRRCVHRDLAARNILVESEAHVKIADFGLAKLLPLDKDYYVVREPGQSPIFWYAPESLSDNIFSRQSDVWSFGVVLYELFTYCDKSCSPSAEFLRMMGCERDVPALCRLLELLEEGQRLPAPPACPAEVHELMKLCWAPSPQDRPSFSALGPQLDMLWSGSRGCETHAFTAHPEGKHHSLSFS
How it was run: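 TR-FRET (LANCE) read: 1 h room-temperature reaction, EDTA quench, Eu-anti-phosphotyrosine antibody, emission 665 nm after 340 nm excitation. Added solutions held 12 ng/mL JAK3, 300 nM ULight-JAK1 substrate and 15 μM ATP (pH 7.5 HEPES). Activity expressed against no-enzyme wells defined as full inhibition.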

[4] = molecular target: T4, TYK2 (Homo sapiens, UniProt P29597); experiment: TYK2 enzyme inhibition test (LANCE method); details: 1 μM test compound; for inhibition at 1 µM: read-out: TYK2 enzyme inhibitory activity (%, 1 μM)
T4 construct: purchased Invitrogen
T4 sequence (P29597 whole entry): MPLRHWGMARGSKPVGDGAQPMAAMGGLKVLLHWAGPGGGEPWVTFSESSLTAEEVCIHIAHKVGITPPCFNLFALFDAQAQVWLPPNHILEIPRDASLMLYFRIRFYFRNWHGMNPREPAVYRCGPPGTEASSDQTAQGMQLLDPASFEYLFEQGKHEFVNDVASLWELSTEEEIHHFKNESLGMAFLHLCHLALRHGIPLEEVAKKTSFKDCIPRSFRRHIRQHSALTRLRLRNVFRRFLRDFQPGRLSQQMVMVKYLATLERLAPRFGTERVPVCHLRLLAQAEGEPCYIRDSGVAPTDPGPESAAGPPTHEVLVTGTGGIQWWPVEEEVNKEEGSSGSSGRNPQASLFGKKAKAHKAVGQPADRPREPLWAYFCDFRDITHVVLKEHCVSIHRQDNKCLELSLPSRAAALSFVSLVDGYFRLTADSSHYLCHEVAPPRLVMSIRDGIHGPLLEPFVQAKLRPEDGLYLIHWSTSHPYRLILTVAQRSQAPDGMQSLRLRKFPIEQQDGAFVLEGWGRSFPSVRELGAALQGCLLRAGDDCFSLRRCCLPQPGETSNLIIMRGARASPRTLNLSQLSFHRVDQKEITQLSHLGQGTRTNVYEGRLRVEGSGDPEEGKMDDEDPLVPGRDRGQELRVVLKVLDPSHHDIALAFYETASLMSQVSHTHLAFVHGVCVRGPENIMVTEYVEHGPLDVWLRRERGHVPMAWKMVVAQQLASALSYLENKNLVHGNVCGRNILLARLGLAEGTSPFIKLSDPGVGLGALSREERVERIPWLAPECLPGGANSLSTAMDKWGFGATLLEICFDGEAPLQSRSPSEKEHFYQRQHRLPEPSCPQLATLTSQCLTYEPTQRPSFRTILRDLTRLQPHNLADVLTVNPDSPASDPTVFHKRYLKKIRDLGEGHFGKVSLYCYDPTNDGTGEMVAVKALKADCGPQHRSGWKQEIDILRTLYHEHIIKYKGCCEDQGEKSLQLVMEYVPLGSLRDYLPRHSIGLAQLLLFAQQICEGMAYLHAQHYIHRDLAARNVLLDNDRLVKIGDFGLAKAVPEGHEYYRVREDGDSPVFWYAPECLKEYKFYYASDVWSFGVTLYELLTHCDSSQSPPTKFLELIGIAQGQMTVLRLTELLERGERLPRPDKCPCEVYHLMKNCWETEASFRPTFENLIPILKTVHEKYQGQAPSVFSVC
How it was run: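 TR-FRET (LANCE) readout: after 1 h room-temperature kinase reaction, EDTA plus 4 nM Eu-labelled anti-phosphotyrosine antibody added, signal at 665 nm (340 nm excitation). Reaction combined TYK2, ULight-JAK1 substrate and ATP, prepared at 375 ng/mL, 300 nM and 30 μM before addition, in pH 7.5 HEPES/MgCl2 buffer; enzyme-free wells define full inhibition.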

T1 sequence (P23458 whole entry): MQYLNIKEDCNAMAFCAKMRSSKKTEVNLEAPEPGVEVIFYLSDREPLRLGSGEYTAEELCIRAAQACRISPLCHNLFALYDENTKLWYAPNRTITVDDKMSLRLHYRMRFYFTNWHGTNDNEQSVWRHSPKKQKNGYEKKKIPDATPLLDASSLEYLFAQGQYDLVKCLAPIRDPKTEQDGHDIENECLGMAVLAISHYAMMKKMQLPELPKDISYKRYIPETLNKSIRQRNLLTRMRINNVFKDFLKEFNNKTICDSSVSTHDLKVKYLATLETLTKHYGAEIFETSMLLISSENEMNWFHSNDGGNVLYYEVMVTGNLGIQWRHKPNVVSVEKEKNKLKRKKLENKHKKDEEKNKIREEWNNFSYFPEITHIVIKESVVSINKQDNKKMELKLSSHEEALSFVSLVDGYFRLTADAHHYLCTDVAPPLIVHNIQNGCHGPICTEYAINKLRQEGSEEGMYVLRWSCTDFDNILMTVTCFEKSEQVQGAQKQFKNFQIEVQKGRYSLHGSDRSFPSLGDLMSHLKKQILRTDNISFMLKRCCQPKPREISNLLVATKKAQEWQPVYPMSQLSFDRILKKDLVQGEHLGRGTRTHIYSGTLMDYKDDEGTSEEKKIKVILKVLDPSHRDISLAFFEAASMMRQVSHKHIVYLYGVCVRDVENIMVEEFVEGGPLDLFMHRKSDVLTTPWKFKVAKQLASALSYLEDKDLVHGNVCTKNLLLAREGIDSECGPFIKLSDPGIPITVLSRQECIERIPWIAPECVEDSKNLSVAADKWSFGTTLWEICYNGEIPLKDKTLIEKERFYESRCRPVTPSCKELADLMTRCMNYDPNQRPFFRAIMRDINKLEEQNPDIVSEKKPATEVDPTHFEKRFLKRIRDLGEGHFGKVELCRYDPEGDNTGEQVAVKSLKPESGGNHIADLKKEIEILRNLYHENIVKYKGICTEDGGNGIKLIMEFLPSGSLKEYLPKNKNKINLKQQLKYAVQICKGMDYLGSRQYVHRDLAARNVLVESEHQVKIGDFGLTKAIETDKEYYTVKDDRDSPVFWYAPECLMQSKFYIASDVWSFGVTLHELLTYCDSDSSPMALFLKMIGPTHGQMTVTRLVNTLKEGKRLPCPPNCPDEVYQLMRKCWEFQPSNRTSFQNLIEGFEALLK

| SMILES | inhibition at 1 µM [1] | inhibition at 1 µM [2] | inhibition at 1 µM [3] | inhibition at 1 µM [4] | JAK1 enzyme inhibitory activity (%, 1 μM) [1] | JAK2 enzyme inhibitory activity (%, 1 μM) ([2]; 1 µM) | JAK3 enzyme inhibitory activity (%, 1 μM) ([3]; 1 µM) | TYK2 enzyme inhibitory activity (%, 1 μM) ([4]; 1 µM) |
| --- | --- | --- | --- | --- | --- | --- | --- | --- |
| COC1(c2cc(-c3cn(C(C4CC4)C4CC4)c(=O)c4c(N)n[nH]c34)nn2C)CN(S(=O)(=O)C(C)C)C1 [Example 90, 3-amino-5-(dicyclopropylmethyl)-7-(5-(1-(isopropylsulfonyl)-3-methoxyazetidin-3-yl)-1-methyl-1H-pyrazol-3-yl)-1,5-dihydro-4H-pyrazolo[4,3-c]pyridin-4-one] | 96% | 99% | 99% | 100% | – | – | – | – |
| C[C@H](C1CC1)n1cc(-c2cc(C(C)(C)O)n(C)n2)c2[nH]nc(N)c2c1=O [Example 91, 3-amino-5-((1R)-1-cyclopropylethyl)-7-(5-(2-hydroxypropan-2-yl)-1-methyl-1H-pyrazol-3-yl)-1,5-dihydro-4H-pyrazolo[4,3-c]pyridin-4-one] | 96% | 88% | 97% | 99% | – | – | – | – |
| CC(C)N1CCN(c2cc(-c3cn([C@@H](C)C4CC4)c(=O)c4c(N)n[nH]c34)nn2C)CC1=O [Example 92, 3-amino-5-((1S)-1-cyclopropylethyl)-7-(5-(4-isopropyl-3-oxopiperazin-1-yl)-1-methyl-1H-pyrazol-3-yl)-1,5-dihydro-4H-pyrazolo[4,3-c]pyridin-4-one] | 100% | 100% | 99% | 99% | – | – | – | – |
| C[C@@H](C1CC1)n1cc(-c2cc(N3CCC(O)(C(F)(F)F)CC3)n(C)n2)c2[nH]nc(N)c2c1=O [Example 94, 3-amino-5-((1S)-1-cyclopropylethyl)-7-(5-(4-hydroxy-4-(trifluoromethyl)piperidin-1-yl)-1-methyl-1H-pyrazol-3-yl)-1,5-dihydro-4H-pyrazolo[4,3-c]pyridin-4-one] | 100% | 100% | 100% | 99% | – | – | – | – |
| C[C@@H](C1CC1)n1cc(-c2cc(N3CCS(=O)(=O)C(C)(C)C3)n(C)n2)c2[nH]nc(N)c2c1=O [Example 95, 3-amino-5-((1S)-1-cyclopropylethyl)-7-(5-(2,2-dimethyl-1,1-dioxidothiomorpholin-4-yl)-1-methyl-1H-pyrazol-3-yl)-1,5-dihydro-4H-pyrazolo[4,3-c]pyridin-4-one] | 100% | 100% | 100% | 99% | – | – | – | – |
| C[C@@H](C1CC1)n1cc(-c2cc(N3CCS(=O)(=O)CC3)n(C)n2)c2[nH]nc(N)c2c1=O [Example 96, 3-amino-5-((1S)-1-cyclopropylethyl)-7-(5-(1,1-dioxidothiomorpholin-4-yl)-1-methyl-1H-pyrazol-3-yl)-1,5-dihydro-4H-pyrazolo[4,3-c]pyridin-4-one] | 99% | 100% | 100% | 100% | – | – | – | – |
| COC1(c2cc(-c3cn([C@@H](C)C4CC4)c(=O)c4c(N)n[nH]c34)nn2C)CN(C(=O)C(C)C)C1 [Example 97, 3-amino-5-((1S)-1-cyclopropylethyl)-7-(5-(1-isobutyryl-3-methoxyazetidin-3-yl)-1-methyl-1H-pyrazol-3-yl)-1,5-dihydro-4H-pyrazolo[4,3-c]pyridin-4-one] | 97% | 99% | 99% | 100% | – | – | – | – |
| COC1(c2cc(-c3cn([C@@H](C)C4CC4)c(=O)c4c(N)n[nH]c34)nn2C)CN(S(=O)(=O)C(C)C)C1 [Example 98, 3-amino-5-((1S)-1-cyclopropylethyl)-7-(5-(1-(isopropylsulfonyl)-3-methoxyazetidin-3-yl)-1-methyl-1H-pyrazol-3-yl)-1,5-dihydro-4H-pyrazolo[4,3-c]pyridin-4-one] | 97% | 100% | 100% | 100% | – | – | – | – |
| CC(n1cc(-c2cc(N3CCOCC3)n(C)n2)c2[nH]nc(N)c2c1=O)C(C)(C)O (stereo not drawn) [Example 99, 3-amino-5-(3-hydroxy-3-methylbutan-2-yl)-7-(1-methyl-5-(morpholin-4-yl)-1H-pyrazol-3-yl)-1,5-dihydro-4H-pyrazolo[4,3-c]pyridin-4-one] | 83% | 85% | 97% | 99% | – | – | – | – |
| CC(C)[C@@H](C)n1cc(-c2cc(C(C)(C)O)n(C)n2)c2[nH]nc(N)c2c1=O [Example 100, 3-amino-7-(5-(2-hydroxypropan-2-yl)-1-methyl-1H-pyrazol-3-yl)-5-((2R)-3-methylbutan-2-yl)-1,5-dihydro-4H-pyrazolo[4,3-c]pyridin-4-one] | 82% | 65% | 86% | 96% | – | – | – | – |
| CC(C)[C@H](C)n1cc(-c2cc(N(C)C(C)C)n(C)n2)c2[nH]nc(N)c2c1=O [Example 101, 3-amino-7-(5-(isopropyl(methyl)amino)-1-methyl-1H-pyrazol-3-yl)-5-((2S)-3-methylbutan-2-yl)-1,5-dihydro-4H-pyrazolo[4,3-c]pyridin-4-one] | 96% | 97% | 99% | 100% | – | – | – | – |
| CC(C)[C@H](C)n1cc(-c2cc(N3CCN(S(=O)(=O)C(C)C)CC3)n(C)n2)c2[nH]nc(N)c2c1=O [Example 102, 3-amino-7-(5-(4-(isopropylsulfonyl)piperazin-1-yl)-1-methyl-1H-pyrazol-3-yl)-5-((2S)-3-methylbutan-2-yl)-1,5-dihydro-4H-pyrazolo[4,3-c]pyridin-4-one] | 97% | 98% | 99% | 100% | – | – | – | – |
| CC(C)[C@H](C)n1cc(-c2cc(N3CCCC3CN(C)C)n(C)n2)c2[nH]nc(N)c2c1=O (stereo partly drawn) [Example 103, 3-amino-7-(5-(2-((dimethylamino)methyl)pyrrolidin-1-yl)-1-methyl-1H-pyrazol-3-yl)-5-((2S)-3-methylbutan-2-yl)-1,5-dihydro-4H-pyrazolo[4,3-c]pyridin-4-one] | – | 93% | 97% | 96% | 51% | – | – | – |
| CC(C)[C@H](C)n1cc(-c2cc(N3CCCC3CN(C)C)n(C)n2)c2[nH]nc(N)c2c1=O (stereo partly drawn) [Example 104, 3-amino-7-(5-(2-((dimethylamino)methyl)pyrrolidin-1-yl)-1-methyl-1H-pyrazol-3-yl)-5-((2S)-3-methylbutan-2-yl)-1,5-dihydro-4H-pyrazolo[4,3-c]pyridin-4-one] | – | – | – | – | 72% | 96% | 98% | 100% |
| CC(C)[C@H](C)n1cc(-c2cc(N3CC4(COC4)C3)n(C)n2)c2[nH]nc(N)c2c1=O [Example 105, 3-amino-5-((2S)-3-methylbutan-2-yl)-7-(1-methyl-5-(2-oxa-6-azaspiro[3.3]hept-6-yl)-1H-pyrazol-3-yl)-1,5-dihydro-4H-pyrazolo[4,3-c]pyridin-4-one] | 97% | 99% | 99% | 99% | – | – | – | – |
